{"source": "ChEMBL document CHEMBL1136837", "about": "“Unified QSAR approach to antimicrobials. 4. Multi-target QSAR modeling and comparative multi-distance study of the giant components of antiviral drug-drug complex networks” (Bioorg Med Chem, 2009)", "key": {"Hepatitis B virus": {"system": "Hepatitis B virus", "assay": "Antiviral activity against Hepatitis B virus", "assay_type": "functional, organism-based"}, "Hepatitis C virus": {"system": "Hepatitis C virus", "assay": "Antiviral activity against Hepatitis C virus", "assay_type": "functional, organism-based, Hepacivirus hominis", "conditions": "Hepatitis C virus"}, "[1]": {"system": "unidentified influenza virus", "assay": "Antiviral activity against influenza virus", "assay_type": "functional, organism-based"}, "Human papillomavirus": {"system": "Human papillomavirus", "assay": "Antiviral activity against Human papillomavirus", "assay_type": "functional, organism-based"}, "Cowpox virus": {"system": "Cowpox virus", "assay": "Antiviral activity against Cowpox virus", "assay_type": "functional, organism-based"}, "Human alphaherpesvirus 3": {"system": "Human alphaherpesvirus 3", "assay": "Antiviral activity against Varicella zoster virus", "assay_type": "functional, organism-based"}, "[2]": {"system": "Human immunodeficiency virus 1", "assay": "Antiviral activity against HIV1", "assay_type": "functional, organism-based"}, "[3]": {"system": "Human immunodeficiency virus 2", "assay": "Antiviral activity against HIV2", "assay_type": "functional, organism-based"}}, "note": "pIC50: −log10 of the molar value."}
{"smiles": "COc1cccc(Sc2nc(N)nc3c2ncn3CCOCP(=O)(OCC(F)(F)F)OCC(F)(F)F)c1", "values": [{"measurement": "pIC50", "setting": "Hepatitis B virus", "result": 7.40}]}
{"smiles": "CCCOc1ccc(Sc2nc(N)nc3c2ncn3CCOCP(=O)(OCC(F)(F)F)OCC(F)(F)F)cc1", "values": [{"measurement": "pIC50", "setting": "Hepatitis B virus", "result": 6.06}]}
{"smiles": "Cc1ccccc1Sc1nc(N)nc2c1ncn2CCOCP(=O)(OCC(F)(F)F)OCC(F)(F)F", "values": [{"measurement": "pIC50", "setting": "Hepatitis B virus", "result": 7.10}]}
{"smiles": "Nc1nc(Sc2ccc3ccccc3c2)c2ncn(CCOCP(=O)(OCC(F)(F)F)OCC(F)(F)F)c2n1", "values": [{"measurement": "pIC50", "setting": "Hepatitis B virus", "result": 7.05}]}
{"smiles": "Cc1ccc(Sc2nc(N)nc3c2ncn3CCOCP(=O)(OCC(F)(F)F)OCC(F)(F)F)cc1", "values": [{"measurement": "pIC50", "setting": "Hepatitis B virus", "result": 7.22}]}
{"smiles": "Nc1nc(Sc2ccccc2)c2ncn(CCOCP(=O)(OCC(F)(F)F)OCC(F)(F)F)c2n1", "values": [{"measurement": "pIC50", "setting": "Hepatitis B virus", "result": 7.30}]}
{"smiles": "Nc1nc(Sc2ccc([N+](=O)[O-])cc2)c2ncn(CCOCP(=O)(OCC(F)(F)F)OCC(F)(F)F)c2n1", "values": [{"measurement": "pIC50", "setting": "Hepatitis B virus", "result": 6.28}]}
{"smiles": "CCc1ccc(Sc2nc(N)nc3c2ncn3CCOCP(=O)(OCC(F)(F)F)OCC(F)(F)F)cc1", "values": [{"measurement": "pIC50", "setting": "Hepatitis B virus", "result": 6.40}]}
{"smiles": "Nc1nc(Sc2ccc(OC(F)(F)F)cc2)c2ncn(CCOCP(=O)(OCC(F)(F)F)OCC(F)(F)F)c2n1", "values": [{"measurement": "pIC50", "setting": "Hepatitis B virus", "result": 7.22}]}
{"smiles": "CCOc1ccc(Sc2nc(N)nc3c2ncn3CCOCP(=O)(OCC(F)(F)F)OCC(F)(F)F)cc1", "values": [{"measurement": "pIC50", "setting": "Hepatitis B virus", "result": 6.19}]}
{"smiles": "CCCCOc1ccc(Sc2nc(N)nc3c2ncn3CCOCP(=O)(OCC(F)(F)F)OCC(F)(F)F)cc1", "values": [{"measurement": "pIC50", "setting": "Hepatitis B virus", "result": 6.00}]}
{"smiles": "CC(C)c1ccc(Sc2nc(N)nc3c2ncn3CCOCP(=O)(OCC(F)(F)F)OCC(F)(F)F)cc1", "values": [{"measurement": "pIC50", "setting": "Hepatitis B virus", "result": 6.01}]}
{"smiles": "Cc1cn([C@H]2C[C@H](OP(=O)(S)OC[C@H]3O[C@@H](n4cnc5c(N)ncnc54)C[C@@H]3O)[C@@H](COP(=O)(S)O[C@H]3C[C@H](n4ccc(N)nc4=O)O[C@@H]3CO)O2)c(=O)[nH]c1=O", "note": "(some centres not stated)", "values": [{"measurement": "pIC50", "setting": "Hepatitis B virus", "result": 5.68}, {"measurement": "pIC50", "setting": "Hepatitis C virus", "result": 6.00}]}
{"smiles": "Nc1ncnc2c1ccn2[C@H]1C[C@H](OP(=O)(S)OC[C@H]2O[C@@H](n3cnc4c(N)ncnc43)C[C@@H]2O)[C@@H](CO)O1", "note": "(some centres not stated)", "values": [{"measurement": "pIC50", "setting": "Hepatitis B virus", "result": 6.52}, {"measurement": "pIC50", "setting": "Hepatitis C virus", "result": 6.00}]}
{"smiles": "O=C(O)C(=O)CCc1ccccc1", "values": [{"measurement": "pIC50", "setting": "Hepatitis C virus", "result": 4.30}, {"measurement": "pIC50", "setting": "[1]", "result": 3.30}]}
{"smiles": "CC(C)CC1=N/C(=C\\c2ccc(F)cc2)C(=O)NC1=O", "values": [{"measurement": "pIC50", "setting": "[1]", "result": 3.44}]}
{"smiles": "O=C(Nc1ccccc1)Nc1ccc2c(C(=O)c3ccccc3)c(O)n(O)c2c1", "values": [{"measurement": "pIC50", "setting": "[1]", "result": 4.54}]}
{"smiles": "CC(=O)c1c(O)n(O)c2cc(NC(=O)c3ccc4ccccc4c3)ccc12", "values": [{"measurement": "pIC50", "setting": "[1]", "result": 5.05}]}
{"smiles": "O=c1[nH]c2nccnc2c(=O)n1O", "values": [{"measurement": "pIC50", "setting": "[1]", "result": 4.02}]}
{"smiles": "O=C1Cc2ccccc2CN1O", "values": [{"measurement": "pIC50", "setting": "[1]", "result": 4.00}]}
{"smiles": "O=c1c2nccnc2ncn1O", "values": [{"measurement": "pIC50", "setting": "[1]", "result": 3.30}]}
{"smiles": "O=C1Cc2ccccc2C(=O)N1O", "values": [{"measurement": "pIC50", "setting": "[1]", "result": 3.15}]}
{"smiles": "O=C(O)CS(=O)(=O)c1ccc(-c2ccc(CC(=O)NCc3ccccc3)cc2)cc1", "values": [{"measurement": "pIC50", "setting": "Human papillomavirus", "result": 6.47}]}
{"smiles": "O=S(=O)(Cc1nnn[nH]1)c1ccc(-c2ccccc2)cc1", "values": [{"measurement": "pIC50", "setting": "Human papillomavirus", "result": 4.20}]}
{"smiles": "O=C(O)CS(=O)(=O)c1ccc(-c2cccc(C(=O)N3CCOCC3)c2)cc1", "values": [{"measurement": "pIC50", "setting": "Human papillomavirus", "result": 4.66}]}
{"smiles": "O=P(O)(O)CS(=O)(=O)c1ccc(-c2ccccc2)cc1", "values": [{"measurement": "pIC50", "setting": "Human papillomavirus", "result": 4.52}]}
{"smiles": "O=C(O)CS(=O)(=O)c1ccc(-c2ccc(CC(=O)Nc3ccccc3)cc2)cc1", "values": [{"measurement": "pIC50", "setting": "Human papillomavirus", "result": 6.80}]}
{"smiles": "O=C(O)CS(=O)(=O)c1ccc2ccccc2c1", "values": [{"measurement": "pIC50", "setting": "Human papillomavirus", "result": 4.40}]}
{"smiles": "Cc1cccc(CNC(=O)c2cccc(-c3ccc(S(=O)(=O)CC(=O)O)cc3)c2)c1C", "values": [{"measurement": "pIC50", "setting": "Human papillomavirus", "result": 8.04}]}
{"smiles": "Cc1cccc(CNC(=O)c2cccc(-c3ccc(S(=O)(=O)CC(=O)O)cc3)c2)c1", "values": [{"measurement": "pIC50", "setting": "Human papillomavirus", "result": 7.57}]}
{"smiles": "O=C(O)CS(=O)(=O)c1ccc(-c2ccc(C(=O)Nc3ccccc3)cc2)cc1", "values": [{"measurement": "pIC50", "setting": "Human papillomavirus", "result": 5.89}]}
{"smiles": "O=C(O)CS(=O)(=O)c1ccc(-c2ccc(C(=O)N(Cc3ccccc3)Cc3ccccc3)cc2)cc1", "values": [{"measurement": "pIC50", "setting": "Human papillomavirus", "result": 5.96}]}
{"smiles": "O=[N+]([O-])CS(=O)(=O)c1ccc(-c2ccccc2)cc1", "values": [{"measurement": "pIC50", "setting": "Human papillomavirus", "result": 4.19}]}
{"smiles": "O=C(O)CSc1ccc(-c2ccccc2)cc1", "values": [{"measurement": "pIC50", "setting": "Human papillomavirus", "result": 4.10}]}
{"smiles": "O=S(=O)(O)CS(=O)(=O)c1ccc(-c2ccccc2)cc1", "values": [{"measurement": "pIC50", "setting": "Human papillomavirus", "result": 4.49}]}
{"smiles": "O=C(NCc1cccc2ccccc12)c1cccc(-c2ccc(C(=O)C(F)(F)P(=O)(O)O)cc2)c1", "values": [{"measurement": "pIC50", "setting": "Human papillomavirus", "result": 6.13}]}
{"smiles": "O=C(O)CS(=O)(=O)c1ccc(-c2ccc(C(=O)NCc3ccccc3)cc2)cc1", "values": [{"measurement": "pIC50", "setting": "Human papillomavirus", "result": 6.29}]}
{"smiles": "O=C(O)CS(=O)(=O)c1ccc(-c2cccc(CC(=O)Nc3ccccc3)c2)cc1", "values": [{"measurement": "pIC50", "setting": "Human papillomavirus", "result": 6.96}]}
{"smiles": "CS(=O)(=O)c1ccc(-c2ccccc2)cc1", "values": [{"measurement": "pIC50", "setting": "Human papillomavirus", "result": 4.10}]}
{"smiles": "Nc1nc(NC2CC2)c2ncn(CCOCP(=O)(O)O)c2n1", "values": [{"measurement": "pIC50", "setting": "Cowpox virus", "result": 4.55}]}
{"smiles": "Nc1ncnc2c1ncn2/C=C1/CC1(F)CO", "note": "(configuration not stated)", "values": [{"measurement": "pIC50", "setting": "Human alphaherpesvirus 3", "result": 4.85}, {"measurement": "pIC50", "setting": "[2]", "result": 4.92}, {"measurement": "pIC50", "setting": "Hepatitis B virus", "result": 4.70}]}
{"smiles": "O=C1c2ccccc2C(=O)N1O", "values": [{"measurement": "pIC50", "setting": "[1]", "result": 3.30}]}
{"smiles": "O=C1CCc2ccccc2C(=O)N1O", "values": [{"measurement": "pIC50", "setting": "[1]", "result": 3.00}]}
{"smiles": "O=C(Nc1ccc2c(C(=O)c3ccccc3)c(O)n(O)c2c1)NC1CCCCC1", "values": [{"measurement": "pIC50", "setting": "[1]", "result": 4.30}]}
{"smiles": "NN1C(=O)Cc2ccccc2C1=O", "values": [{"measurement": "pIC50", "setting": "[1]", "result": 3.10}]}
{"smiles": "CN(C)c1cc(=O)n(CCOCP(=O)(O)O)c(N)n1", "values": [{"measurement": "pIC50", "setting": "[3]", "result": 9.47}]}
{"smiles": "COc1ccccc1/C(Br)=C(\\NC(=O)c1ccc([N+](=O)[O-])cc1)C(=O)N1CCCCC1", "values": [{"measurement": "pIC50", "setting": "Hepatitis B virus", "result": 5.62}]}
